From US10954232B2, “Pyrazole derivative as ALK5 inhibitor and uses thereof” (HANMI PHARMACEUTICAL CO., LTD., priority 2016, dated 2021) come the findings set out here.

In the assay the target is T1, ALK5 kinase (Homo sapiens, UniProt P36897).
T1 construct: GST; purchased Thermo Fisher Scientific Solutions
T1 sequence (P36897 34-503): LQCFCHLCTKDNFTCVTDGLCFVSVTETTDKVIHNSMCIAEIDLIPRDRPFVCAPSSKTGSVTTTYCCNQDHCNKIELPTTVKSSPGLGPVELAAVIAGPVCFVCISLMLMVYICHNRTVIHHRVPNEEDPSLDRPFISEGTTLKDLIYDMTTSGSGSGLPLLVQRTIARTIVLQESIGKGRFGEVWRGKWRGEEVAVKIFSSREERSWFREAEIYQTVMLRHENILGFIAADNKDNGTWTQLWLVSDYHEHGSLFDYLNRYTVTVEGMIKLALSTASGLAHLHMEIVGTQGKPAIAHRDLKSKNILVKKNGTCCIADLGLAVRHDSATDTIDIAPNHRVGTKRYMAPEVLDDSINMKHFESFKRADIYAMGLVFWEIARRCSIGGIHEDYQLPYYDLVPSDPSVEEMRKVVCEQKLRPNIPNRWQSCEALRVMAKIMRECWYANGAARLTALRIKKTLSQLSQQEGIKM
Nature of the assay: Activity inhibition test on ALK5 enzyme (LanthaScreen Eu binding kinase assay). The following applies: kinase tracer 178, 60 minutes at room temperature. In outline:
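IC50 is the concentration giving 50% inhibition relative to control, taken from fluorescence after 60 min stirring at room temperature. Final mix held kinase 5 nM, Eu-GST binding antibody 2 nM and tracer 178 10 nM. Compounds were serially diluted from 1 μM to 0.0001 μM.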
On the technique in general: TR-FRET usually uses a lanthanide donor and a delayed reading to cut background.
In the case of `COc1ccc(CNC(=O)c2cc(-c3ccc4nccnc4c3)n(-c3cccc(C)n3)n2)cc1` [Example 193, N-(4-methoxybenzyl)-1-(6-methylpyridin-2-yl)-5-(quinoxalin-6-yl)-1H-pyrazole-3-carboxyamide], the IC50 was ~100 nM. The value for `Cc1cccc(-n2nc(C(=O)NCc3ccc(C#N)cc3)cc2-c2ccc3nccnc3c2)n1` [Example 194, N-(4-cyanobenzyl)-1-(6-methylpyridin-2-yl)-5-(quinoxalin-6-yl)-1H-pyrazole-3-carboxyamide] was > 100 nM. The value for `CC(=O)c1cccc(CNC(=O)c2cc(-c3ccc4nccnc4c3)n(-c3cccc(C)n3)n2)c1` [Example 195, N-(3-acetylbenzyl)-1-(6-methylpyridin-2-yl)-5-(quinoxalin-6-yl)-1H-pyrazole-3-carboxyamide] was 10 to 100 nM; that for `Cc1cccc(-n2nc(C(=O)NCc3cccc(F)c3)cc2-c2ccc3nccnc3c2)n1` [Example 197, N-(3-fluorobenzyl)-1-(6-methylpyridin-2-yl)-5-(quinoxalin-6-yl)-1H-pyrazole-3-carboxyamide] was 10 to 100 nM. The value for `Cc1cccc(-n2nc(C(=O)NCc3ccccc3F)cc2-c2ccc3nccnc3c2)n1` [Example 198, N-(2-fluorobenzyl)-1-(6-methylpyridin-2-yl)-5-(quinoxalin-6-yl)-1H-pyrazole-3-carboxyamide] was < 100 nM; that for `Cc1cccc(-n2nc(C(=O)NCc3ccc(Cl)cc3)cc2-c2ccc3nccnc3c2)n1` [Example 199, N-(4-chlorobenzyl)-1-(6-methylpyridin-2-yl)-5-(quinoxalin-6-yl)-1H-pyrazole-3-carboxyamide] was > 100 nM. `Cc1cccc(-n2nc(C(=O)NCc3cccc(Cl)c3)cc2-c2ccc3nccnc3c2)n1` [Example 200, N-(3-chlorobenzyl)-1-(6-methylpyridin-2-yl)-5-(quinoxalin-6-yl)-1H-pyrazole-3-carboxyamide] displayed an IC50 of 10 to 100 nM. As for `Cc1cccc(-n2nc(C(=O)NCc3ccccc3Cl)cc2-c2ccc3nccnc3c2)n1` [Example 201, N-(2-chlorobenzyl)-1-(6-methylpyridin-2-yl)-5-(quinoxalin-6-yl)-1H-pyrazole-3-carboxyamide], the figure is 10 to 100 nM. The value for `Cc1cccc(-n2nc(C(=O)Nc3ccccc3F)cc2-c2ccc3nccnc3c2)c1` [Example 202, N-(2-fluorophenyl)-5-(quinoxalin-6-yl)-1-(m-tolyl)-1H-pyrazole-3-carboxyamide] was > 1000 nM; that for `COc1ccc(NC(=O)c2cc(-c3ccc4nccnc4c3)n(-c3cc(Cl)ccc3F)n2)cc1` [Example 203, 1-(5-chloro-2-fluorophenyl)-N-(4-methoxyphenyl)-5-(quinoxalin-6-yl)-1H-pyrazole-3-carboxyamide] was > 100 nM. As for `CN(C)c1ccc(NC(=O)c2cc(-c3ccc4nccnc4c3)n(-c3cc(Cl)ccc3F)n2)cc1` [Example 204, 1-(5-chloro-2-fluorophenyl)-N-(4-(dimethylamino)phenyl)-5-(quinoxalin-6-yl)-1H-pyrazole-3-carboxyamide], the figure is ~100 nM. Consider `COc1ccc(NC(=O)c2cc(-c3ccc4nccnc4c3)n(-c3cccc(C(F)(F)F)n3)n2)cc1` [Example 205], for which the IC50 was > 100 nM. The value for `CN(C)c1ccc(NC(=O)c2cc(-c3ccc4nccnc4c3)n(-c3cccc(C(F)(F)F)n3)n2)cc1` [Example 206] was > 100 nM; that for `COc1ccc(NC(=O)c2cc(-c3ccc4nccnc4c3)n(-c3cccc(Br)n3)n2)cc1` [Example 207, 1-(6-bromopyridin-2-yl)-N-(4-methoxyphenyl)-5-(quinoxalin-6-yl)-1H-pyrazole-3-carboxyamide] was 10 to 100 nM; that for `CN(C)c1ccc(NC(=O)c2cc(-c3ccc4nccnc4c3)n(-c3cccc(Br)n3)n2)cc1` [Example 208, 1-(6-bromopyridin-2-yl)-N-(4-(dimethylamino)phenyl)-5-(quinoxalin-6-yl)-1H-pyrazole-3-carboxyamide] was 10 to 100 nM. As for `Cc1cccc(-n2nc(C(=O)Nc3ccccc3F)cc2-c2ccnc3ccccc23)n1` [Example 209, N-(2-fluorophenyl)-1-(6-methylpyridin-2-yl)-5-(quinolin-4-yl)-1H-pyrazole-3-carboxyamide], the figure is > 100 nM; as for `COc1ccc(NC(=O)c2cc(-c3ccnc4ccccc34)n(-c3cccc(C)n3)n2)cc1` [Example 210, N-(4-methoxyphenyl)-1-(6-methylpyridin-2-yl)-5-(quinolin-4-yl)-1H-pyrazole-3-carboxyamide], 10 to 100 nM; as for `Cc1cccc(-n2nc(C(=O)Nc3ccc(S(C)(=O)=O)cc3)cc2-c2ccnc3ccccc23)n1` [Example 211, 1-(6-methylpyridin-2-yl)-N-(4-(methylsulfonyl)phenyl)-5-(quinolin-4-yl)-1H-pyrazole-3-carboxyamide], < 10 nM. The value for `COc1ccc(NC(=O)c2cc(-c3ccnc4ccccc34)n(-c3cccc(C)n3)n2)cn1` [Example 212, N-(6-methoxypyridin-3-yl)-1-(6-methylpyridin-2-yl)-5-(quinolin-4-yl)-1H-pyrazole-3-carboxyamide] was 36 nM; that for `Cc1cccc(-n2nc(C(=O)Nc3ccc(Cl)nc3)cc2-c2ccnc3ccccc23)n1` [Example 213, N-(6-chloropyridin-3-yl)-1-(6-methylpyridin-2-yl)-5-(quinolin-4-yl)-1H-pyrazole-3-carboxyamide] was 23 nM.

On to `Cc1cccc(-n2nc(C(=O)Nc3ccc4c(c3)OCO4)cc2-c2ccnc3ccccc23)n1` [Example 214, N-(benzo[d][1,3]dioxol-5-yl)-1-(6-methylpyridin-2-yl)-5-(quinolin-4-yl)-1H-pyrazole-3-carboxyamide], for which the concentration for half-maximal inhibition (IC50) turned out to be 30 nM. The value for `COc1ccc(NC(=O)c2cc(-c3ccnc4ccccc34)n(-c3cccc(C)n3)n2)cc1F` [Example 215, N-(3-fluoro-4-methoxyphenyl)-1-(6-methylpyridin-2-yl)-5-(quinolin-4-yl)-1H-pyrazole-3-carboxyamide] was 91 nM. The value for `COc1ccc(NC(=O)c2cc(-c3ccnc4ccccc34)n(-c3cccc(C)n3)n2)c(F)c1` [Example 216, N-(2-fluoro-4-methoxyphenyl)-1-(6-methylpyridin-2-yl)-5-(quinolin-4-yl)-1H-pyrazole-3-carboxyamide] was ~100 nM; that for `COCCOc1ccc(NC(=O)c2cc(-c3ccnc4ccccc34)n(-c3cccc(C)n3)n2)cc1` [Example 217, N-(4-(2-methoxyethoxy)phenyl)-1-(6-methylpyridin-2-yl)-5-(quinolin-4-yl)-1H-pyrazole-3-carboxyamide] was 18 nM; that for `Cc1cccc(-n2nc(C(=O)Nc3ccc(S(=O)(=O)C4CC4)cc3)cc2-c2ccc3nonc3c2)n1` [Example 218, 5-(benzo[c][1,2,5]oxadiazol-5-yl)-N-(4-(cyclopropylsulfonyl)phenyl)-1-(6-methylpyridin-2-yl)-1H-pyrazole-3-carboxyamide] was 10 to 100 nM.

Compound `Cc1cccc(-n2nc(C(=O)Nc3ccccc3F)cc2-c2ccc3ncoc3c2)n1` [Example 219, 5-(benzo[d]oxazol-6-yl)-N-(2-fluorophenyl)-1-(6-methylpyridin-2-yl)-1H-pyrazole-3-carboxyamide] came in with a half-maximal inhibitory concentration (IC50) of 27 nM. The value for `Cc1cccc(-n2nc(C(=O)Nc3ccc(S(=O)(=O)C4CC4)cc3)cc2-c2ccc3ncoc3c2)n1` [Example 220] was 3.2 nM; that for `Cc1cccc(-n2nc(C(=O)NC3CC3)cc2-c2ccc(F)c(-c3cnn(CCO)c3)c2)n1` [Example 221, N-cyclopropyl-5-(4-fluoro-3-(1-(2-hydroxyethyl)-1H-pyrazol-4-yl)phenyl)-1-(6-methylpyridin-2-yl)-1H-pyrazole-3-carboxyamide] was 4.3 nM; that for `Cc1cccc(-n2nc(C(=O)Nc3cn[nH]c3)cc2-c2ccc(F)c(-c3cnn(CCO)c3)c2)n1` [Example 222, N-(1H-pyrazol-4-yl)-5-(4-fluoro-3-(1-(2-hydroxyethyl)-1H-pyrazol-4-yl)phenyl)-1-(6-methylpyridin-2-yl)-1H-pyrazole-3-carboxyamide] was 1 nM.

`Cc1cccc(-n2nc(C(=O)Nc3cnn(C)c3)cc2-c2ccc(F)c(-c3cnn(CCO)c3)c2)n1` [Example 223, N-(1-methyl-1H-pyrazol-4-yl)-5-(4-fluoro-3-(1-(2-hydroxyethyl)-1H-pyrazol-4-yl)phenyl)-1-(6-methylpyridin-2-yl)-1H-pyrazole-3-carboxyamide] had an IC50 of 2.8 nM. As for `Cc1cccc(-n2nc(C(=O)Nc3cnn(S(C)(=O)=O)c3)cc2-c2ccc(F)c(-c3cnn(CCO)c3)c2)n1` [Example 224, N-(1-(methylsulfonyl)-1H-pyrazol-4-yl)-5-(4-fluoro-3-(1-(2-hydroxyethyl)-1H-pyrazol-4-yl)phenyl)-1-(6-methylpyridin-2-yl)-1H-pyrazole-3-carboxyamide], the figure is 3.1 nM. `Cc1cccc(-n2nc(C(=O)Nc3ccc(Cl)cc3)cc2-c2ccc(F)c(-c3cnn(CCO)c3)c2)n1` [Example 225, N-(4-chlorophenyl)-5-(4-fluoro-3-(1-(2-hydroxyethyl)-1H-pyrazol-4-yl)phenyl)-1-(6-methylpyridin-2-yl)-1H-pyrazole-3-carboxyamide] showed an IC50 of 33 nM.

In general, IC50 refers to the concentration that inhibits the measured activity by half.
